The values below come from paper PMC5418348, “Identification of a Novel Allosteric Inhibitory Site on Tryptophan Hydroxylase 1 Enabling Unprecedented Selectivity Over all Related Hydroxylases” (Frontiers in Pharmacology, 2017).

Data set [1] has as its target T1, TPH1 (104–394) (Homo sapiens, UniProt P17752).
T1 construct: His6 (N, cleaved yes); made in house; host or cells: Escherichia coli BL21 Rosetta (DE3)
Nature of the data set: Biacore surface plasma resonance binding / competition experiments. To be noted: SPR, previously estimated, data not shown; read-out: KD toward TPH1. As to the method:
Biosensor experiments were performed on a Biacore T100 instrument (GE Healthcare). Biotinylation and capture of TPH1 was performed by adding a volume of freshly prepared EZ-link solution (dissolved in water) to an aliquot of TPH1(104–394) in a 2:1 molar ratio and incubated on ice. After 30 min of incubation, the reaction was stopped by the addition of 100 mM of Tris pH7.5. Unreacted biotin was removed by passing the solution over a fast desalting column (Thermo scientific #89849, equilibrated with PBS, 0.5 mM TCEP) three times. Biotinylated protein was aliquoted and kept at -80°C until use. Biotinylated TPH1 (104–394) was immobilized at 22°C on a SA chip surface (GE Healthcare) equilibrated with 10 mM Hepes, 150 mM NaCl, 1 mM TCEP, 0.05% Tween20, 5% glycerol, pH7.6. Approximately 3200RU were immobilized using this procedure. A streptavidin surface served as the reference.
Binding experiments were performed at 20°C using 10 mM Hepes, 150 mM NaCl, 1 mM TCEP, 0.05% Tween20, 5% glycerol, pH7.6, 2% DMSO as running buffer. […] Using a flow rate of […], samples were injected for 120 s and dissociation was monitored for 240 s. […]

Data set [2] has as its system BON (human pancreatic carcinoid) cell line. Nature of the data set: BON cell assay of D4-5-HT production from deuterated tryptophan. Format: cell-based. To be noted: BON cells; for IC50: read-out: IC50 inhibition of D4-5-HT production. As to the method:
(§1) 5-HT newly synthesized through TPH activity was assessed both in vitro and in vivo by addition of deuterium labeled substrate (deuterated tryptophan – TRP-d5) and subsequently generated deuterium labeled product (deuterated serotonin – 5HT-d4) (Figure 6A). BON (human pancreatic carcinoid) cell line was a gift from Dr. Courtney M. Townsend (University of Texas, Galveston, TX, USA) and cultured as previously described ([Tran et al., 2004]). Cells were seeded overnight in 96-well plates at 1.2 × 10^5 cells per well in 200 μL growth media containing 1% FBS, and incubated at 37°C, 5% CO2. After 24 h, cell media was exchanged for […] serum-free media. All reagents added to the cells in subsequent steps were diluted in serum-free media. Cells were treated with 25 μL of either compound or DMSO vehicle (1 % v/v) for 15 min at 37°C, 5% CO2 and then treated with 25 μL 196 mM deuterated-tryptophan (Isotec, UK) for a further 2 h at 37°C, 5% CO2. BON cell lysates were then prepared by removal of all media with subsequent addition of […] HTAB. These lysates were further analyzed for D4-5-HT content by LCMS. Cell toxicity was also assessed in BON cells using a standard lactate dehydrogenase (LDH) assay according to instructions.

For data set [3], the system named is BON cells. Put plainly: LDH cell toxicity assay in BON cells. Format: cell-based, human. Conditions: Figure 5B. On the procedure:
as §1

In data set [4] the target is T2, Human TPH-1 (Homo sapiens, UniProt P17752).
T2 sequence (P17752 1-444): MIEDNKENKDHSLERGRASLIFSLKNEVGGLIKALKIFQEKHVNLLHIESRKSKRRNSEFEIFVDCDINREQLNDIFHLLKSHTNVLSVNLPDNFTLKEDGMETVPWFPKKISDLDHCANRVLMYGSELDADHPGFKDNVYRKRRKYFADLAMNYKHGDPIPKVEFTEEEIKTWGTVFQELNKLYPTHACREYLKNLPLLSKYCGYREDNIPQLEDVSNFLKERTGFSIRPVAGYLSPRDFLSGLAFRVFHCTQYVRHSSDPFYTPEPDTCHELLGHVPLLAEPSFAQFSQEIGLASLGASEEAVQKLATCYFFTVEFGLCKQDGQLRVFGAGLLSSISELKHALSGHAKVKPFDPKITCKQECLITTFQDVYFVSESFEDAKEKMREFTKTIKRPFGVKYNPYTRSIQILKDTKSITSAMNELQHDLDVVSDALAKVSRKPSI
Put plainly: In vitro human TPH-1 enzyme activity assay (fluorescence). Format: biochemical. To be noted: literature ref Liu et al., 2008. As to the method: Human TPH-1 and Human TPH-2 enzyme assays were carried out at room temperature with atmosphere oxygen in a volume of 25 μL. A base buffer of 40 mM HEPES pH 7.0, 200 mM ammonium sulfate was made and stored at 4°C. On the day of assay, final concentrations of 10 μM iron ammonium sulfate, 0.1 mg mL^-1 BSA, 25 μg mL^-1 catalase, and 0.04% Chaps were added and designated as enzyme buffer. Substrate buffer was made the same way but for the addition of a final concentration of 10 mM DTT. Enzymes were diluted as follows: 1.25x = 12.5 nM TPH1 (Final = 10 nM) or 1.25x = 37.5 nM TPH2 (Final = 30 nM) in enzyme buffer. Substrates were diluted as follows: 5x = 200 μM (6R)-5,6,7,8-Tetrahydrobiopterin dihydrochloride (BH4) (Final = 40 μM) and 5x = 100 μM Tryptophan (Final = 20 μM) in substrate buffer. Compounds were serially diluted 1:1 in DMSO to 50x = 500 μM (Final = 10 μM). Assays were performed in GNF Custom Greiner Black 384-well plates. Compounds were added at 0.5 μL per well. Enzymes were added at 20 μL per well. Compounds and enzymes were pre-incubated 15 min at room temperature. Substrates were added at 5 μL per well to initiate the reaction. The plates were covered and incubated at room temperature: 30 min for TPH1 and 60 min for TPH2. The reactions were quenched with the addition of 25 μL 30% sulfuric acid.

In data set [5] the test system is TPH1. More on the design: method as in Liu et al., 2008. Conditions: ref Liu et al., 2008; read-out: TPH1 activity IC50 (literature); cited from earlier work.

“Also recorded” adds a separate entry of the source. Where two headings read alike, the source gives them in different places.

A word on the Kd: it is the free concentration of one partner at which half of the binding sites on the other are occupied at equilibrium, for simple one-to-one binding. Regarding `C[C@H](O)[C@H](O)C1=Nc2c(nc(N)[nH]c2=O)NC1` [BH2], in data set [1], the Kd is 11 µM.

`N[C@@H](Cc1c[nH]c2ccccc12)C(=O)O` [L-Trp]: the Kd in data set [1] is 56 µM.

One may read the IC50 as the concentration that inhibits the measured activity by half. Take `N[C@@H](Cc1ccc(Cl)cc1)C(=O)O` (racemic) [pCPA, p-chlorophenylalanine]: the “IC50 inhibition of D4-5-HT production” value in data set [2] was “could not be established; also recorded: not measurable”. Also, the IC50 in data set [2] (Figure 5B, 15 min compound then 2 h deuterated tryptophan, n = 3) is greater than 30 µM; in data set [5], 250 µM. Besides, the LDH tox in data set [3] is greater than 30 µM. The “difference between literature TPH1 IC50 and the values reported here” value in data set [4] is given as “approximately 50 fold”.

With `Nc1nc(OC(c2ccc(-c3cccc(F)c3)cc2)C(F)(F)F)cc(-c2ccc(C[C@H](N)C(=O)O)cc2)n1` (stereo partly shown) [LP533401], the IC50 is 12.4 µM in data set [2] and 0.7 µM in data set [5]. Moreover, the LDH tox in data set [3] is greater than 30 µM.
